Measured values: US4866057A, “4-substituted 10-cyanomethylenepyrrolo[4,3-e]-benzazepines” (BASF Aktiengesellschaft, priority 1987, dated 1989)
Where two headings read alike, the source gives them in different places.

Key:
[1] = system: L-5-Hydroxytryptamine (L-5-HTP); assay: L-5-HTP antagonism (serotonin antagonism); type: in vivo, rats; details: oral, rat; for ED50: 1 h before L-5-HTP (316 mg/kg i.p.), 50% mean reduction in score, read-out: Antiserotoninergic action rat ED; for antiserotoninergic action compared with clozapine: in words, action of reference clozapine
Method: 2. L-5-HTP antagonism (serotonin antagonism)
L-5-Hydroxytryptamine (L-5-HTP), a serotonin prodrug, causes in rats (316 mg/kg i.p.) a state of agitation which is characterized by signs such as head-shaking, tremor and movements of the forepaws. The animals are observed for 1 h after administration of L-5-HTP, and the signs are scored every 10 min. The test substances are administered orally 1 h before L-5-HTP; n/dose=6. The ED50 is calculated as the dose which brings about a mean reduction in the score of a control group by 50%.

[2] = system: orientation hypermotility; assay: Sedative action (orientation hypermotility, mouse); type: in vivo, female NMRI mice; details: oral; for ED50: 0.5 h, 50% decrease in orientation hypermotility vs control, measured from 30 min after dosing for 30 min, read-out: Sedative action mouse ED 50; for sedative action compared with clozapine: in words, action of reference clozapine
Method: 4 to 8 groups each comprising 3 female NMRI mice receive the substances by oral administration. The orientation hypermotility induced by a new environment is determined photoelectrically 30 min after the administration of the substance for a period of 30 min.
The ED50 is determined as the dose which brings about a decrease in the orientation hypermotility of 50% compared with placebo-treated control animals.

physostigmine = assay: Anticholinergic action (protection from lethal physostigmine); type: in vivo, female NMRI mice; details: oral, mouse, 30 min before physostigmine 0.825 mg/kg s.c.; protects 50% from death; read-out: Anticholinergic mouse ED 50
Method: 3. Anticholinergic action
Groups of 10 female NMRI mice receive physostigmine in a lethal dose (0.825 mg/kg) subcutaneously. The test substances are administered orally 30 min before the physostigmine administration. The ED50 is determined as the dose of substance which protects 50% of the animals from death due to physostigmine.

dopamine D2 receptor = molecular target: T1, dopamine D2 receptor (Bos taurus, UniProt P20288); assay: Affinity to dopamine D2 receptor, competitive assay, 3H-spiperon; type: binding, bovine
T1 construct: bovine nucleus caudatus membranes; from tissue; host or cells: bovine caudate nucleus membranes
T1 sequence (P20288 whole entry): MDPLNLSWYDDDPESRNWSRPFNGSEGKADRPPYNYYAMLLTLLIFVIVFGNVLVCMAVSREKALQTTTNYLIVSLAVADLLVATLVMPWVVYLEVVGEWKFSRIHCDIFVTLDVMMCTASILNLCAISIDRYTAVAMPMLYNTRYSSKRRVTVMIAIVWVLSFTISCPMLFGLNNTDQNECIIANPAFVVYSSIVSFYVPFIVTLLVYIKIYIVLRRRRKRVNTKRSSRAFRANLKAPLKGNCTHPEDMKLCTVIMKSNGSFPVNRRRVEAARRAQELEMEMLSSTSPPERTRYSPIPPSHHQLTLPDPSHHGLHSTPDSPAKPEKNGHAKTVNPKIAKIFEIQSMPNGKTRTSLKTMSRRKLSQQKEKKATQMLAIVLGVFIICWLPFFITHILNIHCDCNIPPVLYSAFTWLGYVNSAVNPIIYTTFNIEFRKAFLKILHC
Method: (§1) 4. In vitro determination of the affinity to dopamine D1 and D2 receptors by means of competitive assays
(§2) The non-specific binding was determined using 10 μM (+)-butaclamol or using 1 μM haloperidol. After incubation at 30° C. for 60 min, the mixtures were filtered through glass fiber filters (GF/B, Whatman) and the amount of radioligand retained on the filter was determined by liquid scintillation measurement.

dopamine D1 receptor = molecular target: T2, dopamine D1 receptor (Bos taurus, UniProt Q95136); assay: Affinity to dopamine D1 receptor, competitive assay, 3H-SCH 23390; type: binding, bovine
T2 construct: bovine nucleus caudatus membranes; from tissue; host or cells: bovine caudate nucleus membranes
T2 sequence (Q95136 whole entry): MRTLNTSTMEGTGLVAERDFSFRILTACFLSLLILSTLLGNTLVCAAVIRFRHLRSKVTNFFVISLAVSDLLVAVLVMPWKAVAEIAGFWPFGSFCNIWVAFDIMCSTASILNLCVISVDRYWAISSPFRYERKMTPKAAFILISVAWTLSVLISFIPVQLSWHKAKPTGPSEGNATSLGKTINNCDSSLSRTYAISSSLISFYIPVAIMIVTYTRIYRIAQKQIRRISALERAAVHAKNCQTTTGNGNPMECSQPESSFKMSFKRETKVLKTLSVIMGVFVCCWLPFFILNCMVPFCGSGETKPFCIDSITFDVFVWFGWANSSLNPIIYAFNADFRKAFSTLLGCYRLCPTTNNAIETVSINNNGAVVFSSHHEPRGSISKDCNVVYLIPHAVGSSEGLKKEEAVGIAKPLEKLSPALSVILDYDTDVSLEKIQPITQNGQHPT
Method: as §1, §2

[3] = bovine nucleus caudatus membranes, pH 7.4, 30° C., 60 min, 0.2 nM radioligand, read-out: Affinity to D2 receptor, Inhibition of 3H-spiperon binding, Ki
[4] = bovine nucleus caudatus membranes, pH 7.4, 30° C., 60 min, 1 nM radioligand, read-out: Affinity to D1 receptor, Inhibition of 3H-SCH 23 390 binding, Ki

Row | SMILES | ED50 [1] [mg/kg] | ED50 [2] [mg/kg] | ED50 (physostigmine) [mg/kg] | Ki (dopamine D2 receptor; [3]) [µM] | Ki (dopamine D1 receptor; [4]) [µM] | antiserotoninergic action compared with clozapine [1] | sedative action compared with clozapine [2] | Ki (dopamine D2 receptor) [µM] | Ki (dopamine D1 receptor) [µM]
1 | CN1CCN(C2=Nc3cc(Cl)ccc3/C(=C/C#N)c3cn(C)cc32)CC1 [Example 3a, (E)-7-Chloro-10-cyanomethylene-2-methyl-4-(4-methyl-1-piperazinyl)pyrrolo[4,3-e]benzazepine] | 0.29 | 0.67 | – | – | – | – | – | – | –
2 | CN1CCN(C2=Nc3cc(Cl)ccc3C(=CC#N)c3cn(Cc4ccccc4)cc32)CC1 [Example 11, (E),(Z)-7-Chloro-2-benzyl-10-cyanomethylene-4-(4-methyl-1-piperazinyl)pyrrolo[4,3-e]benzazepine] | – | 35 | > 100 | ~1 | 0.0128 | – | – | – | –
3 | CN1CCN(C2=Nc3ccccc3C(=CC#N)c3cn(Cc4ccccc4)cc32)CC1 [Example 9, (E),(Z)-10-Cyanomethylene-2-benzyl-4-(4-methyl-1-piperazinyl)pyrrolo[4,3-e]benzazepine] | 46.4 | 29.8 | > 46.4 | ~1 | 0.0034 | – | – | – | –
4 | CN1CCN(C2=Nc3cc(Cl)ccc3Nc3ccccc32)CC1 [Clozapine, clozapine, reference compound] | 6.3 | 3.8 | – | – | – | – | – | – | –
5 | CN1CCN(C2=Nc3cc(Cl)ccc3C(=CC#N)c3cn(C)cc32)CC1 [Example 3, (E),(Z)-7-Chloro-10-cyanomethylene-2-methyl-4-(4-methyl-1-piperazinyl)pyrrolo[4,3-e]benzazepine] | 0.2 | 0.82 | 17.5 | ~1 | 0.02 | reached or exceeded | reached or exceeded | – | –
6 | CN1CCN(C2=Nc3ccccc3/C(=C/C#N)c3cn(C)cc32)CC1 [Example 1a, 10-Cyanomethylene-2-methyl-4-(4-methyl-1-piperazinyl)pyrrolo[4,3-e]benzazepine] | 1.18 | 2.96 | > 21.5 | – | – | reached or exceeded | reached or exceeded | ~2 | 0.0105
7 | CCN1CCN(C2=Nc3ccccc3C(=CC#N)c3cn(C)cc32)CC1 [Example 12, (E),(Z)-10-Cyanomethylene-2-methyl-4-(4-ethyl-1-piperazinyl)pyrrolo[4,3-e]benzazepine] | 3.3 | 4.7 | 16.7 | ~2 | 0.0208 | reached or exceeded | – | – | –
